According to patent US12427134B2, “Methods of reducing the risk of cardiovascular events in a subject with atrial fibrillation and/or atrial flutter” (priority 2019, dated 2025):

System: hypertriglyceridemic patients with cardiovascular disease or at high risk for cardiovascular disease
Test: REDUCE-IT: treatment-emergent adverse events and serious adverse events (safety population)

SMILES: CC/C=C\C/C=C\C/C=C\C/C=C\C/C=C\CCCC(=O)OCC [AMR101, eicosapentaenoic acid ethyl ester]
- TEAE: Respiratory, thoracic, and mediastinal disorders, % (Region Westernized (N = 2906)): (30.9) %
- Diarrhea leading to study drug withdrawal, patients (Safety population): 1.1%
- Nausea leading to study drug withdrawal, patients (Safety population): 0.6%
- Patients with SAE leading to study drug withdrawal (Safety population): 2.2%
- Patients with TEAE leading to study drug withdrawal (Safety population): 7.9%
- Patients with at least one SAE (Safety population): 30.6%
- Patients with at least one TEAE (Safety population): 81.8%
- Patients with serious TEAE leading to death (Safety population): 2.3%
- SAE acute kidney injury, patients (Safety population): 1.1
- SAE angina pectoris, patients (Safety population): 1.2%
- SAE chest pain, patients (Safety population): 1.6%
- SAE class GI disorders, patients (Safety population): 4.7%
- SAE class cardiac disorders, patients (Safety population): 4.7%
- SAE class musculoskeletal and connective tissue disorders, patients (Safety population): 4.6%
- SAE class neoplasms benign, malignant, and unspecified, patients (Safety population): 5.4%
- SAE non-cardiac chest pain, patients (Safety population): 1.2%
- SAE osteoarthritis, patients (Safety population): 2.0%
- Serious TEAE (Safety population): 1252 (30.6%) n (%)
- Serious TEAE Leading to Death (Safety population): 94 (2.3%) n (%)
- Serious TEAE Leading to Withdrawal of Study Drug (Safety population): 88 (2.2%) n (%)
- Serious TEAE: Pneumonia (Safety population): 105 (2.6%) n (%)
- Serious adverse event pneumonia, patients (Safety population): 2.6%
- Serious anemia, patients (Safety population): 0.5%
- Severe TEAE acute kidney injury, patients (Safety population): 0.7%
- Severe TEAE chest pain, patients (Safety population): 0.7%
- Severe TEAE osteoarthritis, patients (Safety population): 0.8%
- Severe TEAE pneumonia, patients (Safety population): 1.5%
- Severe TEAE, patients with at least one (Safety population): 19.7%
- Study drug-related SAE, patients with at least one (Safety population): 0.2%
- Study drug-related TEAE class GI disorders, patients (Safety population): 7.4%
- Study drug-related TEAE diarrhea, patients (Safety population): 2.7%
- Study drug-related TEAE leading to study drug withdrawal, patients (Safety population): 3.4%
- Study drug-related TEAE, patients with at least one (Safety population): 12.6%
- Study drug-related diarrhea leading to study drug withdrawal, patients (Safety population): 1.0%
- TEAE Leading to Withdrawal of Study Drug (Safety population): 321 (7.9%) n (%)
- TEAE anemia, patients (Safety population): 4.7%
- TEAE atrial fibrillation, patients (Safety population): 5.3%
- TEAE class GI disorders leading to study drug withdrawal, patients (Safety population): 3.6%
- TEAE class general disorders and administration site conditions, patients (Safety population): 25.2%
- TEAE class musculoskeletal and connective tissue disorders, patients (Safety population): 35.9%
- TEAE class nervous system disorders, patients (Safety population): 24.6%
- TEAE constipation, patients (Safety population): 5.4%
- TEAE diarrhea, patients (Safety population): 9%
- TEAE gastrointestinal disorders, patients (Safety population): 33.0%
- TEAE of special interest: abnormal glucose control, patients (Safety population): 15.2%
- TEAE of special interest: hepatic disorders, patients (Safety population): 5.4%
- TEAE peripheral edema, patients (Safety population): 6.5%
- TEAE: Anemia (Safety population): 191 (4.7%) n (%)
- TEAE: Angina pectoris (Safety population): 200 (4.9%) n (%)
- TEAE: Arthralgia (Safety population): 313 (7.7%) n (%)
- TEAE: Atrial fibrillation (Safety population): 215 (5.3%) n (%)
- TEAE: Back pain (Safety population): 335 (8.2%) n (%)
- TEAE: Bronchitis (Safety population): 306 (7.5%) n (%)
- TEAE: Cataract (Safety population): 233 (5.7%) n (%)
- TEAE: Chest pain (Safety population): 273 (6.7%) n (%)
- TEAE: Constipation (Safety population): 221 (5.4%) n (%)
- TEAE: Cough (Safety population): 241 (5.9%) n (%)
- TEAE: Diarrhea (Safety population): 367 (9.0%) n (%)
- TEAE: Dizziness (Safety population): 235 (5.7%) n (%)
- TEAE: Dyspnea (Safety population): 254 (6.2%) n (%)
- TEAE: Fatigue (Safety population): 228 (5.6%) n (%)
- TEAE: Gastroesophageal Reflux Disease (Safety population): 124 (3.0%) n (%)
- TEAE: Gastrointestinal disorders (Safety population): 1350 (33.0%) n (%)
- TEAE: Hypertension (Safety population): 320 (7.8%) n (%)
- TEAE: Influenza (Safety population): 263 (6.4%) n (%)
- TEAE: Nasopharyngitis (Safety population): 314 (7.7%) n (%)
- TEAE: Nausea (Safety population): 190 (4.6%) n (%)
- TEAE: Osteoarthritis (Safety population): 241 (5.9%) n (%)
- TEAE: Pain in extremity (Safety population): 235 (5.7%) n (%)
- TEAE: Peripheral edema (Safety population): 267 (6.5%) n (%)
- TEAE: Pneumonia (Safety population): 263 (6.4%) n (%)
- TEAE: Upper respiratory tract infection (Safety population): 312 (7.6%) n (%)
- TEAE: Urinary tract infection (Safety population): 253 (6.2%) n (%)
- TEAE of special interest: Hepatic disorders, % (Safety population N = 4089, P-value 0.3180): (5.4) %
- TEAE of special interest: Abnormal glucose control, % (Safety population N = 4089, P-value 0.8059): (15.2) %
- CEC-adjudicated CV deaths (excluding deaths with undetermined cause), % (Safety population, N = 4089): (3.4) %
- CEC-adjudicated Deaths with undetermined cause, % (Safety population, N = 4089): (0.9) %
- CEC-adjudicated Non-CV deaths, % (Safety population, N = 4089): (2.4) %
- CEC-adjudicated deaths: Total mortality, % (Safety population, N = 4089): (6.7) %
- Patients with at least 1 TEAE, % (Safety population, N = 4089): (81.8) %
- Patients with at least 1 serious TEAE, % patients (Safety population, N = 4089): (30.6) %
- Patients with at least 1 serious TEAE, n patients (Safety population, N = 4089): 1252
- Patients with at least 1 severe TEAE, % (Safety population, N = 4089): (19.7) %
- Patients with at least 1 study drug-related TEAE leading to study drug withdrawal, % patients (Safety population, N = 4089): (3.4) %
- Patients with at least 1 study drug-related TEAE leading to study drug withdrawal, n patients (Safety population, N = 4089): 139
- Patients with at least 1 study drug-related TEAE, % (Safety population, N = 4089): (12.6) %
- Serious TEAE Leading to Death, % (Safety population, N = 4089): (2.3) %
- Serious TEAE Leading to Withdrawal of Study Drug, % (Safety population, N = 4089): (2.2) %
- Serious TEAE, % (Safety population, N = 4089): (30.6) %
- Serious adverse event - Acute kidney injury, % patients (Safety population, N = 4089): (1.1) %
- Serious adverse event - Acute kidney injury, n patients (Safety population, N = 4089): 47
- Serious adverse event - Acute respiratory failure, % patients (Safety population, N = 4089): (0.5) %
- Serious adverse event - Acute respiratory failure, n patients (Safety population, N = 4089): 19
- Serious adverse event - Anemia, % patients (Safety population, N = 4089): (0.5) %
